Data as given in patent US20250241894A1, “TREATMENT OF MENTAL DISORDERS” (GH RESEARCH IRELAND LIMITED, priority 2022, published 2025).

Tests used:
human hepatocytes [1] = test: Metabolism identification study in human hepatocytes; details: for Relative Proportion of compounds identified: 5-MeO-DMT free base 10 μM, up to 120 minutes
Experimental: For incubations with cryopreserved hepatocytes, the 2 mM stock solution was diluted with Leibovitz L-15 medium to a concentration of 20 μM or 2 μM. An aliquot (250 μL) of the 20 μM and 2 μM test substance formulations was added to each hepatocyte incubation sample (250 μL), as appropriate, so that the final test substance concentration in the incubations was 10 μM or 1 μM, respectively, and incubations contained less than 1% (v/v) solvent.
Incubations were performed at ca. 37° C. in a shaking water bath (total incubation volume 0.5 mL). For 1 μM, incubations were terminated after 0, 5, 10, 20, 30, 60 and 120 minutes, by the addition of ice-cold acetonitrile (0.5 mL).
The samples were vortex mixed and centrifuged at ca 13,000 rpm for 10 minutes at room temperature. Following centrifugation, the protein-free supernatants were removed for analysis.
Blank control incubations were carried out with Leibovitz L-15 medium in place of the test substance. No cells control samples were performed with Leibovitz L-15 medium in place of hepatocytes. Aliquots of the blank control samples were taken at 120 minutes, while no cells control samples were taken at 0, 30 and 120 for 1 μM incubations and at 0 and 120 minutes for 10 μM incubations.
All 1 μM incubations were performed in duplicate, while all 10 μM incubations were performed in singlet. All samples were stored at −80° C. (nominal) prior to analysis.
Prior to sample analysis a 100 μL aliquot of each sample was evaporated to near dryness under a steady stream of nitrogen at room temperature, and subsequently reconstituted in 50 μL of mobile phase A (0.1% formic acid in water). Each sample (0, 30 and 120-minute, 10 μM) was analysed using accurate mass LC-MS to determine relative levels of parent compound at each time-point, and determine the profile of metabolites formed. Appropriate blank and control samples were also analysed. The 10 and 60-minute, 10 μM incubation samples were not analysed and were stored at −80° C. (nominal).
Data were interrogated for the presence of metabolites by comparison of retention times with the test substance reference standard and based on the accurate masses of potential metabolites using screening software (UNIFI version 1.9.4), and user defined search parameters. To confirm a suspected metabolite, the measured accurate mass of the peak detected in the sample used for structural elucidation had to be within 5 ppm of the theoretical mass in order to confirm the molecular formula.

human plasma protein = test: Binding of 5-MIAA to human plasma protein; format: in vitro ADME
Experimental: Binding to human plasma protein was determined. Reported are the unbound fraction (fu) for three replicates as well as the mean unbound fraction, the standard deviation and the mean % recovery (Table 8).

human hepatocytes [2] = test: Metabolic stability in Hμrel human hepatocyte co-culture assay
Water solubility = format: physicochemical
[3] = rat; cited from earlier work
[4] = Pharmacokinetics of 5-MeO-DMT and bufotenine after a single inhaled dose; format: in vivo, human; details: 15 minutes after administration of 5-MeO-DMT
Experimental: Blood samples were obtained at 1; 2; 4; 7; 10; 15; 20; 30; 45 min and 1; 1.5; 2; 3; 4 hours after administration.
PK parameters were generated by algebraic analysis of the concentration versus time plots for each individual. The analysis was carried out using the software Phoenix WinNonlin 6.3.

## 5-Methoxyindole acetic acid [5-MIAA]
Human hepatocytes [1]
  Presence in subsequent assays: predominant metabolite
Human plasma protein
  Plasma binding (mean fraction unbound): ~50%
Human plasma protein; assuming glomerular filtration rate 90-120 ml/min
  Time until removed from circulation for urinary excretion: 1 to 2 h
Human hepatocytes [2]; after 72 h, hepatocytes, 1 and 10 μM
  Remaining abundance: 75-82%
Human hepatocytes [2]; hepatocytes
  Metabolic turnover: low metabolic turnover
Human hepatocytes [2]; stromal cells
  Disappearance with stromal cell controls: no disappearance

## COc1ccc2[nH]cc(CC[N+](C)(C)[O-])c2c1 [5-MeO-DMT-N-oxide]
Human hepatocytes [1]
  Relative Proportion of compounds identified: 1%
Water solubility
  Water solubility: water soluble
[3]
  Excretion: rapid excretion

## COc1ccc2[nH]cc(CCO)c2c1 [5-methoxytryptophol, 5-Methoxyindole-3-ethanol]
Human hepatocytes [1]
  Relative Proportion of compounds identified: 25%
  Presence in subsequent assays: failed to detect
Human hepatocytes [2]; hepatocytes
  Metabolic turnover: high metabolic turnover
  Time to complete disappearance: 24 h

## CN(C)CCc1c[nH]c2ccc(O[C@@H]3O[C@H](C(=O)O)[C@@H](O)[C@H](O)[C@H]3O)cc12 [Bufotenine glucuronide]
Human hepatocytes [1]
  Detection in the hepatocyte assay: not detected

## CN(C)CCc1c[nH]c2ccc(O)cc12 [bufotenine, Bufotenine]
[4]
  Detection in human serum: In no case is it detected
Human hepatocytes [1]
  Relative Proportion of compounds identified: 5%
